Values after ≈ are worked out from the molar mass of the structure shown.
Experiments:
Test in all cases: Antibacterial effectiveness in agar
Type in all cases: cell-based
Bacteroides fragilis B3 = conditions: in agar; Bacteroides fragilis B3; read-out: M.I.C.
Excerpt: (§1) b. Antibacterial effectiveness of the compound of […]

[1] = test system: Pseudomonas aeruginosa W975; conditions: in agar; Pseudomonas aeruginosa W975; read-out: M.I.C.
Excerpt: as §1

Escherichia coli JT1 = conditions: in agar; Escherichia coli JT1; read-out: M.I.C.
Excerpt: as §1

[2] = test system: Staphylococcus aureus T150+; conditions: in agar; Staphylococcus aureus T150+; read-out: M.I.C.
Excerpt: as §1

[3] = test system: Staphylococcus aureus ME9+; conditions: in agar; Staphylococcus aureus ME9+; read-out: M.I.C.
Excerpt: as §1

Escherichia coli E8 = conditions: in agar; Escherichia coli E8; read-out: M.I.C.
Excerpt: as §1

Escherichia coli Ba78R+ = conditions: in agar; Escherichia coli Ba78R+; read-out: M.I.C.
Excerpt: as §1

Serratia marcescens SM27 = conditions: in agar; Serratia marcescens SM27; read-out: M.I.C.
Excerpt: as §1

[4] = test system: Klebsiella aerogenes T219; conditions: in agar; Klebsiella aerogenes T219; read-out: M.I.C.
Excerpt: as §1

[5] = test system: Klebsiella aerogenes Va2R+; conditions: in agar; Klebsiella aerogenes Va2R+; read-out: M.I.C.
Excerpt: as §1

Proteus rettgeri R110 = conditions: Providencia rettgeri; in agar; Proteus rettgeri R110; read-out: M.I.C.
Excerpt: as §1

Proteus morganii I = conditions: Morganella morganii; in agar; Proteus morganii I; read-out: M.I.C.
Excerpt: as §1

Escherichia coli E96R+ = test system: Escherichia coli E96R+
Excerpt: as §1

[6] = test system: Bacteroides fragilis 2118; conditions: in agar; Bacteroides fragilis 2118; read-out: M.I.C.
Excerpt: as §1

Proteus morganii T361 = conditions: Morganella morganii; in agar; Proteus morganii T361; read-out: M.I.C.
Excerpt: as §1

[7] = test system: Staphylococcus aureus ATCC 25923; conditions: ATCC25923; in agar; Staphylococcus aureus ATCC 25923; read-out: M.I.C.
Excerpt: as §1

Proteus rettgeri I = conditions: Providencia rettgeri; in agar; Proteus rettgeri I; read-out: M.I.C.
Excerpt: as §1

Bacteroides fragilis BC4 = conditions: in agar; Bacteroides fragilis BC4; read-out: M.I.C.
Excerpt: as §1

Escherichia coli JT414C+ = conditions: in agar; Escherichia coli JT414C+; read-out: M.I.C.
Excerpt: as §1

[8] = test system: Streptococcus faecalis T1101; conditions: Enterococcus faecalis; in agar; Streptococcus faecalis T1101; read-out: M.I.C.
Excerpt: as §1

[9] = test system: Bacteroides fragilis VP1 8249; conditions: VP18249; in agar; Bacteroides fragilis VP1 8249; read-out: M.I.C.
Excerpt: as §1

[10] = test system: Staphylococcus aureus T67+; conditions: in agar; Staphylococcus aureus T67+; read-out: M.I.C.
Excerpt: as §1

Escherichia coli JT4R+ = test system: Escherichia coli JT4R+
Excerpt: as §1

[11] = test system: Enterobacter cloacea NCTC 10005; conditions: NCTC10005; in agar; Enterobacter cloacea NCTC 10005; read-out: M.I.C.
Excerpt: as §1

[12] = test system: Citrobacter freundii T221; conditions: in agar; Citrobacter freundii T221; read-out: M.I.C.
Excerpt: as §1

Escherichia coli JT425C+ = conditions: in agar; Escherichia coli JT425C+; read-out: M.I.C.
Excerpt: as §1

[13] = test system: Pseudomonas aeruginosa Dalgleish; conditions: in agar; Pseudomonas aeruginosa Dalgleish; read-out: M.I.C.
Excerpt: as §1

Proteus mirabilis T318 = conditions: in agar; Proteus mirabilis T318; read-out: M.I.C.
Excerpt: as §1

[14] = test system: Bacteroides fragilis WS12; conditions: in agar; Bacteroides fragilis WS12; read-out: M.I.C.
Excerpt: as §1

Proteus mirabilis 889 = conditions: in agar; Proteus mirabilis 889; read-out: M.I.C.
Excerpt: as §1

[15] = test system: Enterbacter aerogenes NCTC 10006; conditions: in agar; Enterbacter aerogenes NCTC 10006; read-out: M.I.C.
Excerpt: as §1

[16] = test system: Escherichia coli NCTC 15418; conditions: NCTC15418; in agar; Escherichia coli NCTC 15418; read-out: M.I.C.
Excerpt: as §1

[17] = test system: Klebsiella aerogenes I281; conditions: in agar; Klebsiella aerogenes I281; read-out: M.I.C.
Excerpt: as §1

[18] = test system: Streptococcus faecalis C90; conditions: Enterococcus faecalis; in agar; Streptococcus faecalis C90; read-out: M.I.C.
Excerpt: as §1

[19] = test system: Pseudomonas aeruginosa NCTC 10662; conditions: NCTC10662; in agar; Pseudomonas aeruginosa NCTC 10662; read-out: M.I.C.
Excerpt: as §1

[20] = test system: Bacteroides fragilis WS41; conditions: in agar; Bacteroides fragilis WS41; read-out: M.I.C.
Excerpt: as §1

Structure (SMILES): CC(=O)N/C=C/SC1=C(C(=O)O)N2C(=O)[C@@H]([C@H](C)OS(=O)(=O)O)[C@H]2C1 [MM 13902, reference compound]
- MIC (Bacteroides fragilis B3): 0.4 µg/mL (≈ 1.02 µM)
- MIC [1]: 50 µg/mL (≈ 127 µM)
- MIC (Escherichia coli JT1): ≤ 0.1 µg/mL
- MIC [2]: 1.6 µg/mL (≈ 4.08 µM)
- MIC [3]: 3.1 µg/mL (≈ 7.9 µM)
- MIC (Escherichia coli E8): ≤ 0.1 µg/mL
- MIC (Escherichia coli Ba78R+): 0.8 µg/mL (≈ 2.04 µM)
- MIC (Serratia marcescens SM27): 1.6 µg/mL (≈ 4.08 µM)
- MIC [4]: ≤ 0.1 µg/mL
- MIC [5]: 6.2 µg/mL (≈ 15.8 µM)
- MIC (Proteus rettgeri R110): 0.2 µg/mL (≈ 0.51 µM)
- MIC (Proteus morganii I): 0.2 µg/mL (≈ 0.51 µM)
- MIC (Escherichia coli E96R+): 0.2 µg/mL (≈ 0.51 µM)
- MIC [6]: 0.2 µg/mL (≈ 0.51 µM)
- MIC (Proteus morganii T361): 0.2 µg/mL (≈ 0.51 µM)
- MIC [7]: 1.6 µg/mL (≈ 4.08 µM)
- MIC (Proteus rettgeri I): 0.2 µg/mL (≈ 0.51 µM)
- MIC (Bacteroides fragilis BC4): 1.6 µg/mL (≈ 4.08 µM)
- MIC (Escherichia coli JT414C+): 0.4 µg/mL (≈ 1.02 µM)
- MIC [8]: 6.2 µg/mL (≈ 15.8 µM)
- MIC [9]: 0.2 µg/mL (≈ 0.51 µM)
- MIC [10]: 0.8 µg/mL (≈ 2.04 µM)
- MIC (Escherichia coli JT4R+): 1.6 µg/mL (≈ 4.08 µM)
- MIC [11]: 12.5 µg/mL (≈ 31.9 µM)
- MIC [12]: 6.2 µg/mL (≈ 15.8 µM)
- MIC (Escherichia coli JT425C+): 0.8 µg/mL (≈ 2.04 µM)
- MIC [13]: 50 µg/mL (≈ 127 µM)
- MIC (Proteus mirabilis T318): ≤ 0.1 µg/mL
- MIC [14]: 0.2 µg/mL (≈ 0.51 µM)
- MIC (Proteus mirabilis 889): 0.2 µg/mL (≈ 0.51 µM)
- MIC [15]: 0.4 µg/mL (≈ 1.02 µM)
- MIC [16]: ≤ 0.1 µg/mL
- MIC [17]: 0.2 µg/mL (≈ 0.51 µM)
- MIC [18]: 6.2 µg/mL (≈ 15.8 µM)
- MIC [19]: 25 µg/mL (≈ 63.7 µM)
- MIC [20]: 0.4 µg/mL (≈ 1.02 µM)

— patent US4473578A, “β-Lactam antibiotics and their use” (Beecham Group Limited, priority 1979, dated 1984)
